Assay results taken from US12679843B2, “Pyrrolopyrimidine amines as complement inhibitors” (BioCryst Pharmaceuticals, Inc., priority 2020, dated 2026).

These molecules were tested against Factor D (Homo sapiens, UniProt P00746) (assay: Factor D esterolytic assay (Z-Lys-SBzl thioester substrate, DTNB, 405 nm)). Settings: substrate Z-Lys-SBzl 1.29 mM, 100 mM HEPES, 500 mM NaCl, pH 7.5, 10% DMSO, tested a minimum of three times.
Type: biochemical
Outline: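 Human Factor D hydrolysis of Z-Lys-SBzl (1.29 mM) monitored at 405 nm via DTNB thiol detection for 600 s, 690 nm background subtracted. Buffer 100 mM HEPES, 500 mM NaCl, pH 7.5, 10% DMSO; substrate added immediately or after room-temperature preincubation. IC50 from percent inhibition of rate, at least three tests.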

Sequence of Factor D (P00746 26-253): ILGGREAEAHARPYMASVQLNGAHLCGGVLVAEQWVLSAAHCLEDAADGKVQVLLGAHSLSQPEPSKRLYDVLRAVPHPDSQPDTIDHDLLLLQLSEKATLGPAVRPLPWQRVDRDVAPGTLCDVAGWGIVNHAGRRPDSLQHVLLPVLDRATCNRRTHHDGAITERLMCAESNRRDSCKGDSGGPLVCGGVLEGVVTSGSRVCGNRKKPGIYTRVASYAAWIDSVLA

Row | IC50 | SMILES
1 | < 100 nM | C[C@@]12C[C@@H](C(=O)Nc3cccc(Br)n3)N(C(=O)Cn3c4ccc(C(N)=O)cc4c4c(N)ncnc43)[C@@H]1C2 [Compound 203a, 4-amino-9-(2-((1R,3S,5R)-3-((6-bromopyridin-2-yl)carbamoyl)-5-methyl-2-azabicyclo[3.1.0]hexan-2-yl)-2-oxoethyl)-9H-pyrimido[4,5-b]indole-6-carboxamide]
2 | < 100 nM | CNC(=O)c1ccc2c(c1)c1c(N)ncnc1n2CC(=O)N1[C@@H]2C[C@@H]2C[C@H]1C(=O)Nc1cccc(Br)n1 [Compound 204a, 4-amino-9-(2-((1R,3S,5R)-3-((6-bromopyridin-2-yl)carbamoyl)-2-azabicyclo[3.1.0]hexan-2-yl)-2-oxoethyl)-N-methyl-9H-pyrimido[4,5-b]indole-6-carboxamide]
3 | < 100 nM | Cc1ccc(-c2ccc3c(c2)c2c(N)ncnc2n3CC(=O)N2[C@@H]3C[C@@H]3C[C@H]2C(=O)Nc2cccc(Br)n2)cc1 [Compound 205c, (1R,3S,5R)-2-(2-(4-amino-6-(p-tolyl)-9H-pyrimido[4,5-b]indol-9-yl)acetyl)-N-(6-bromopyridin-2-yl)-2-azabicyclo[3.1.0]hexane-3-carboxamide]
4 | 100 to 1000 nM | C[C@@H]1C[C@@H](C(=O)Nc2cccc(Br)n2)N(C(=O)Cn2c3ccc(C(F)(F)F)cc3c3c(N)ncnc32)C1 [Compound 206c, (2S,4R)-1-(2-(4-amino-6-(trifluoromethyl)-9H-pyrimido[4,5-b]indol-9-yl)acetyl)-N-(6-bromopyridin-2-yl)-4-methylpyrrolidine-2-carboxamide]
5 | < 100 nM | C[C@@]1(F)C[C@@H](C(=O)Nc2cccc(Br)n2)N(C(=O)Cn2c3ccc(C(F)(F)F)cc3c3c(N)ncnc32)C1 [Compound 207b, (2S,4R)-1-(2-(4-amino-6-(trifluoromethyl)-9H-pyrimido[4,5-b]indol-9-yl)acetyl)-N-(6-bromopyridin-2-yl)-4-fluoro-4-methylpyrrolidine-2-carboxamide]
6 | < 100 nM | C[C@H]1C[C@@H](C(=O)Nc2cccc(Br)n2)N(C(=O)Cn2c3ccc(C(F)(F)F)cc3c3c(N)ncnc32)C1 [Compound 208d, (2S,4S)-1-(2-(4-amino-6-(trifluoromethyl)-9H-pyrimido[4,5-b]indol-9-yl)acetyl)-N-(6-bromopyridin-2-yl)-4-methylpyrrolidine-2-carboxamide]
7 | < 100 nM | Cc1ccc(Br)nc1NC(=O)[C@@H]1C[C@@](C)(F)CN1C(=O)Cn1c2ccc(C(F)(F)F)cc2c2c(N)ncnc21 [Compound 209b, (2S,4R)-1-(2-(4-amino-6-(trifluoromethyl)-9H-pyrimido[4,5-b]indol-9-yl)acetyl)-N-(6-bromo-3-methylpyridin-2-yl)-4-fluoro-4-methylpyrrolidine-2-carboxamide]
8 | 100 to 1000 nM | CC1(C)C[C@@H](C(=O)Nc2cccc(Br)n2)N(C(=O)Cn2c3ccc(C(F)(F)F)cc3c3c(N)ncnc32)C1 [Compound 210d, (S)-1-(2-(4-amino-6-(trifluoromethyl)-9H-pyrimido[4,5-b]indol-9-yl)acetyl)-N-(6-bromopyridin-2-yl)-4,4-dimethylpyrrolidine-2-carboxamide]
9 | 100 to 1000 nM | NC[C@@H]1C[C@@H](C(=O)Nc2cccc(Br)n2)N(C(=O)Cn2c3ccc(C(F)(F)F)cc3c3c(N)ncnc32)C1 [Compound 211e, (2S,4S)-1-(2-(4-amino-6-(trifluoromethyl)-9H-pyrimido[4,5-b]indol-9-yl)acetyl)-4-(aminomethyl)-N-(6-bromopyridin-2-yl)pyrrolidine-2-carboxamide]
10 | 100 to 1000 nM | NC[C@H]1C[C@@H](C(=O)Nc2cccc(Br)n2)N(C(=O)Cn2c3ccc(C(F)(F)F)cc3c3c(N)ncnc32)C1 [Compound 212e, (2S,4R)-1-(2-(4-amino-6-(trifluoromethyl)-9H-pyrimido[4,5-b]indol-9-yl)acetyl)-4-(aminomethyl)-N-(6-bromopyridin-2-yl)pyrrolidine-2-carboxamide]
11 | < 100 nM | C[C@@]1(F)C[C@@H](C(=O)Nc2cncc(Br)n2)N(C(=O)Cn2c3ccc(C(F)(F)F)cc3c3c(N)ncnc32)C1 [Compound 213d, (2S,4R)-1-(2-(4-amino-6-(trifluoromethyl)-9H-pyrimido[4,5-b]indol-9-yl)acetyl)-N-(6-bromopyrazin-2-yl)-4-fluoro-4-methylpyrrolidine-2-carboxamide]
12 | < 100 nM | C[C@@]12C[C@@H](C(=O)Nc3cccc(Br)n3)N(C(=O)Cn3c4ccc(CCC(=O)O)cc4c4c(N)ncnc43)[C@@H]1C2 [Compound 214b, 3-(4-amino-9-(2-((1R,3S,5R)-3-((6-bromopyridin-2-yl)carbamoyl)-5-methyl-2-azabicyclo[3.1.0]hexan-2-yl)-2-oxoethyl)-9H-pyrimido[4,5-b]indol-6-yl)propanoic acid]
13 | < 100 nM | CN(C)c1ccc2c(c1)c1c(N)ncnc1n2CC(=O)N1[C@H](C(=O)Nc2cccc(Br)n2)C[C@@]2(C)C[C@@H]12 [Compound 215g, (1R,3S,5R)-2-(2-(4-amino-6-(dimethylamino)-9H-pyrimido[4,5-b]indol-9-yl)acetyl)-N-(6-bromopyridin-2-yl)-5-methyl-2-azabicyclo[3.1.0]hexane-3-carboxamide]
14 | < 100 nM | COC(=O)c1cc(C)c2c(c1)c1c(N)ncnc1n2CC(=O)N1[C@H](C(=O)Nc2cccc(Br)n2)C[C@@]2(C)C[C@@H]12 [Compound 216g, methyl 4-amino-9-(2-((1R,3S,5R)-3-((6-bromopyridin-2-yl)carbamoyl)-5-methyl-2-azabicyclo[3.1.0]hexan-2-yl)-2-oxoethyl)-8-methyl-9H-pyrimido[4,5-b]indole-6-carboxylate]
15 | < 100 nM | COC(=O)c1cc(C)c2c(c1)c1c(N)ncnc1n2CC(=O)N1[C@@H]2C[C@@H]2C[C@H]1C(=O)Nc1cccc(Br)n1 [Compound 217a, methyl 4-amino-9-(2-((1R,3S,5R)-3-((6-bromopyridin-2-yl)carbamoyl)-2-azabicyclo[3.1.0]hexan-2-yl)-2-oxoethyl)-8-methyl-9H-pyrimido[4,5-b]indole-6-carboxylate]
16 | < 100 nM | Cc1cc(C(=O)O)cc2c3c(N)ncnc3n(CC(=O)N3[C@@H]4C[C@@H]4C[C@H]3C(=O)Nc3cccc(Br)n3)c12 [Compound 218a, 4-amino-9-(2-((1R,3S,5R)-3-((6-bromopyridin-2-yl)carbamoyl)-2-azabicyclo[3.1.0]hexan-2-yl)-2-oxoethyl)-8-methyl-9H-pyrimido[4,5-b]indole-6-carboxylic acid]
17 | < 100 nM | Cc1cc(C(=O)O)cc2c3c(N)ncnc3n(CC(=O)N3[C@H](C(=O)Nc4cccc(Br)n4)C[C@@]4(C)C[C@@H]34)c12 [Compound 219a, 4-amino-9-(2-((1R,3S,5R)-3-((6-bromopyridin-2-yl)carbamoyl)-5-methyl-2-azabicyclo[3.1.0]hexan-2-yl)-2-oxoethyl)-8-methyl-9H-pyrimido[4,5-b]indole-6-carboxylic acid]
18 | 100 to 1000 nM | Nc1ncnc2c1c1cccc(C(=O)O)c1n2CC(=O)N1[C@@H]2C[C@@H]2C[C@H]1C(=O)Nc1cccc(Br)n1 [Compound 220a, 4-amino-9-(2-((1R,3S,5R)-3-((6-bromopyridin-2-yl)carbamoyl)-2-azabicyclo[3.1.0]hexan-2-yl)-2-oxoethyl)-9H-pyrimido[4,5-b]indole-8-carboxylic acid]
19 | < 100 nM | COC(=O)c1cccc2c1c1c(N)ncnc1n2CC(=O)N1[C@H](C(=O)Nc2cccc(Br)n2)C[C@@]2(C)C[C@@H]12 [Compound 221c, methyl 4-amino-9-(2-((1R,3S,5R)-3-((6-bromopyridin-2-yl)carbamoyl)-5-methyl-2-azabicyclo[3.1.0]hexan-2-yl)-2-oxoethyl)-9H-pyrimido[4,5-b]indole-5-carboxylate]
20 | > 1000 nM | C[C@@]12C[C@@H](C(=O)Nc3cccc(Br)n3)N(C(=O)Cn3c4cccc(C(=O)O)c4c4c(N)ncnc43)[C@@H]1C2 [Compound 222a, 4-amino-9-(2-((1R,3S,5R)-3-((6-bromopyridin-2-yl)carbamoyl)-5-methyl-2-azabicyclo[3.1.0]hexan-2-yl)-2-oxoethyl)-9H-pyrimido[4,5-b]indole-5-carboxylic acid]
21 | < 100 nM | COC(=O)c1cccc2c3c(N)ncnc3n(CC(=O)N3[C@H](C(=O)Nc4cccc(Br)n4)C[C@@]4(C)C[C@@H]34)c12 [Compound 223a, methyl 4-amino-9-(2-((1R,3S,5R)-3-((6-bromopyridin-2-yl)carbamoyl)-5-methyl-2-azabicyclo[3.1.0]hexan-2-yl)-2-oxoethyl)-9H-pyrimido[4,5-b]indole-8-carboxylate]
22 | > 1000 nM | Nc1ncnc2c1c1c(C(=O)O)cccc1n2CC(=O)N1[C@@H]2C[C@@H]2C[C@H]1C(=O)Nc1cccc(Br)n1 [Compound 224b, 4-amino-9-(2-((1R,3S,5R)-3-((6-bromopyridin-2-yl)carbamoyl)-2-azabicyclo[3.1.0]hexan-2-yl)-2-oxoethyl)-9H-pyrimido[4,5-b]indole-5-carboxylic acid]
23 | < 100 nM | COC(=O)Nc1ccc2c(c1)c1c(N)ncnc1n2CC(=O)N1[C@@H]2C[C@@H]2C[C@H]1C(=O)Nc1cccc(Br)n1 [Compound 225e, methyl (4-amino-9-(2-((1R,3S,5R)-3-((6-bromopyridin-2-yl)carbamoyl)-2-azabicyclo[3.1.0]hexan-2-yl)-2-oxoethyl)-9H-pyrimido[4,5-b]indol-6-yl)carbamate]
24 | < 100 nM | Nc1ncnc2c1c1cc(-c3ccncc3)ccc1n2CC(=O)N1[C@@H]2C[C@@H]2C[C@H]1C(=O)Nc1cccc(Br)n1 [Compound 226c, (1R,3S,5R)-2-(2-(4-amino-6-(pyridin-4-yl)-9H-pyrimido[4,5-b]indol-9-yl)acetyl)-N-(6-bromopyridin-2-yl)-2-azabicyclo[3.1.0]hexane-3-carboxamide]
25 | < 100 nM | Nc1ncnc2c1c1ccc(-c3ccccc3)cc1n2CC(=O)N1[C@@H]2C[C@@H]2C[C@H]1C(=O)Nc1cccc(Br)n1 [Compound 227c, (1R,3S,5R)-2-(2-(4-amino-7-phenyl-9H-pyrimido[4,5-b]indol-9-yl)acetyl)-N-(6-bromopyridin-2-yl)-2-azabicyclo[3.1.0]hexane-3-carboxamide]
